# Data reported in US20230011869A1 (Hoffmann-La Roche Inc., priority 2018, published 2023).
# Structures can show the parent of a compound that is named as a salt.
# Test system: Acinetobacter baumannii ATCC17961
# Experiment: Antimicrobial susceptibility testing: 90% growth inhibitory concentration (IC90) determination, Iso-Sensitest broth
# Type: cell-based
# Settings: 90% growth inhibitory concentration, Acinetobacter baumannii ATCC17961, Iso-Sensitest broth, OD 600 nm over 16 h; read-out: ATCC17961 IC90
# Method in brief: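 Twofold serial dilutions (e.g. 50 to 0.097 μM final) in Iso-Sensitest broth, inoculum 5×10^(5) CFU/ml, incubated at 35±2° C. OD600 read every 20 minutes over 16 h; IC90 derived from growth inhibition during logarithmic phase.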
row,IC90 [nM],Compound
1,80,"Cc1cc(Nc2nccn3c(-c4ccc(OCC#N)c(F)c4Cl)cnc23)ccc1C(=O)N1CCN(C(=O)[C@@H]2C[C@@H](O)CN2)CC1 [Example 251, 2-[3-chloro-2-fluoro-4-[8-[4-[4-[(2S,4R)-4-hydroxypyrrolidine-2-carbonyl]piperazine-1-carbonyl]-3-methylanilino]imidazo[1,2-a]pyrazin-3-yl]phenoxy]acetonitrile]"

# Same assay, conditions: Acinetobacter baumannii, ATCC17961, 16 h, 90% growth inhibitory concentration, Acinetobacter baumannii ATCC17961, Iso-Sensitest broth, OD 600 nm over 16 h; read-out: ATCC17961 IC90
row,IC90 [nM],Compound
1,59,"Cc1cc(Nc2nccn3c(-c4ccc(OCC#N)c(F)c4Cl)cnc23)ccc1C(=O)N1CCN(C(=O)[C@@H]2CCNC[C@H]2O)CC1 [Example 221, 2-[3-chloro-2-fluoro-4-[8-[4-[4-[(3S,4R)-3-hydroxypiperidine-4-carbonyl]piperazine-1-carbonyl]-3-methyl-anilino]imidazo[1,2-a]pyrazin-3-yl]phenoxy] acetonitrile formate]"
2,38,"Cc1cc(Nc2nccn3c(-c4ccc(OCC#N)c(F)c4Cl)cnc23)ccc1C(=O)N1CCN(C(=O)[C@H]2CCNC[C@H]2O)CC1 [Example 222, 2-[3-chloro-2-fluoro-4-[8-[4-[4-[(3S,4S)-3-hydroxypiperidine-4-carbonyl]piperazine-1-carbonyl]-3-methyl-anilino]imidazo[1,2-a]pyrazin-3-yl]phenoxy] acetonitrile formate]"
3,58,"COc1ccc(-c2cnc3c(Nc4ccc(C(=O)N5CCN(C(=O)[C@@H]6C[C@H](O)CN6)CC5)c(C)c4)nccn23)c(F)c1F [Example 227, [4-[[3-(2,3-difluoro-4-methoxy-phenyl)imidazo[1,2-a]pyrazin-8-yl]amino]-2-methyl-phenyl]-[4-[(2S,4S)-4-hydroxypyrrolidine-2-carbonyl]piperazin-1-yl]methanone]"
4,190,"COc1ccc(-c2cnc3c(Nc4ccc(C(=O)N5CCN(C(=O)[C@H]6NC[C@H](O)[C@@H]6O)CC5)c(C)c4)nccn23)cc1F [Example 233, ((2S,3R,4S)-3,4-dihydroxypyrrolidin-2-yl)(4-(4-((3-(3-fluoro-4-methoxyphenyl)imidazo[1,2-a]pyrazin-8-yl)amino)-2-methylbenzoyl)piperazin-1-yl)methanone hydrochloride]"
5,133,"COc1ccc(-c2cnc3c(Nc4ccc(C(=O)N5CCN(C(=O)[C@H]6NC[C@H](O)[C@@H]6O)CC5)c(C)c4)nccn23)c(F)c1F [Example 234, (4-(4-((3-(2,3-difluoro-4-methoxyphenyl)imida-zo[1,2-a]pyrazin-8-yl)amino)-2-methylbenzoyl)piper-azin-1-yl)((2S,3R,4S)-3,4-dihydroxypyrrolidin-2-yl)methanone]"
6,117,"COc1ccc(-c2cnc3c(Nc4ccc(C(=O)N5CCN(C(=O)[C@@H]6NC[C@@H](O)[C@H]6O)CC5)c(C)c4)nccn23)c(F)c1F [Example 235, (4-(4-((3-(2,3-difluoro-4-methoxyphenyl)imida-zo[1,2-a]pyrazin-8-yl)amino)-2-methylbenzoyl)piper-azin-1-yl)((2R,3S,4R)-3,4-dihydroxypyrrolidin-2-yl)methanone]"
7,113,"COc1ccc(-c2cnc3c(Nc4cc(C)c(C(=O)N5CCN(C(=O)[C@@H]6C[C@@H](O)CN6)CC5)c(F)c4)nccn23)c(F)c1F [Example 243, (4-(4-((3-(2,3-difluoro-4-methoxyphenyl)imidazo[1,2-a]pyrazin-8-yl)amino)-2-fluoro-6-methylbenzoyl)piperazin-1-yl)((2S,4R)-4-hydroxypyrrolidin-2-yl)methanone dihydrochloride]"
8,74,"C#CCOc1ccc(-c2cnc3c(Nc4ccc(C(=O)N5CCN(C(=O)[C@@H]6C[C@@H](O)CN6)CC5)c(C)c4)nccn23)c(F)c1F [Example 248, [4-[[3-(2,3-difluoro-4-prop-2-ynoxy-phenyl)imidazo[1,2-a]pyrazin-8-yl]amino]-2-methyl-phenyl]-[4-[(2S,4R)-4-hydroxypyrrolidine-2-carbonyl]piperazin-1-yl]methanone]"
9,51,"Cc1cc(Nc2nccn3c(-c4ccc(OCC#N)c(Cl)c4F)cnc23)ccc1C(=O)N1CCN(C(=O)[C@@H]2C[C@@H](O)CN2)CC1 [Example 283, 2-[2-chloro-3-fluoro-4-[8-[4-[4-[(2S,4R)-4-hydroxypyrrolidine-2-carbonyl]piperazine-1-carbonyl]-3-methylanilino]imidazo[1,2-a]pyrazin-3-yl]phenoxy]acetonitrile]"

# The remaining lines, values behind:
row,Compound,IC90 [nM]
1,"CC[C@@]1(O)CN[C@H](C(=O)N2CCN(C(=O)c3ccc(Nc4nccn5c(-c6ccc(OCC#N)c(F)c6F)cnc45)cc3C)CC2)C1 [Example 229, 2-[4-[8-[4-[4-[(2S,4S)-4-ethyl-4-hydroxy-pyrrolidine-2-carbonyl]piperazine-1-carbonyl]-3-methyl-anilino]imidazo[1,2-a]pyrazin-3-yl]-2,3-difluoro-phenoxy]acetonitrile formate]",44
2,"Cc1cc(Nc2nccn3c(-c4ccc(OCC#N)c(F)c4F)cnc23)ccc1C(=O)N1CCN(C(=O)[C@@H]2C[C@@](C)(O)CN2)CC1 [Example 231, 2-[2,3-difluoro-4-[8-[4-[4-[(2S,4R)-4-hydroxy-4-methyl-pyrrolidine-2-carbonyl]piperazine-1-carbonyl]-3-methyl-anilino]imidazo[1,2-a]pyrazin-3-yl]phenoxy] acetonitrile formate]",53
3,"COc1ccc(-c2cnc3c(Nc4cc(F)c(C(=O)N5CCN(C(=O)[C@@H]6C[C@@H](O)CN6)CC5)cc4F)nccn23)c(F)c1F [Example 244, (4-(4-((3-(2,3-difluoro-4-methoxyphenyl)imidazo[1,2-a]pyrazin-8-yl)amino)-2,5-difluorobenzoyl)piperazin-1-yl)((2S,4R)-4-hydroxypyrrolidin-2-yl)methanone]",2730
4,"COc1ccc(-c2cnc3c(Nc4ccc(C(=O)N5CCN(C(=O)[C@@]6(O)CNCC[C@@H]6O)CC5)c(C)c4)nccn23)c(F)c1F [Example 287, [4-[[3-(2,3-difluoro-4-methoxyphenyl)imidazo[1,2-a]pyrazin-8-yl]amino]-2-methylphenyl]-[4-[(3R,4S)-3,4-dihydroxypiperidine-3-carbonyl]piperazin-1-yl]methanone]",80

# Same assay, conditions: Acinetobacter baumannii, ATCC17961, 16 h, read-out: ATCC17961 IC90
row,Compound,IC90 [nM]
1,"Cc1cc(Nc2nccn3c(-c4ccc(OC(F)F)cc4)cnc23)ccc1C(=O)N1CCC(C(=O)N[C@H]2CCNC2)CC1 [Example 279, 1-[4-[[3-[4-(difluoromethoxy)phenyl]imi-dazo[1,2-a]pyrazin-8-yl]amino]-2-methylbenzoyl]-N-[(3S)-pyrrolidin-3-yl]piperidine-4-carboxamide; hydrochloride]",1340
2,"COc1ccc(-c2cnc3c(Nc4ccc(C(=O)N5CCN(C(=O)[C@@H]6C[C@H](C)CN6)CC5)c(C)c4)nccn23)c(F)c1F [Example 282, [4-[[3-(2,3-difluoro-4-methoxyphenyl)imidazo[1,2-a]pyrazin-8-yl]amino]-2-methylphenyl]-[4-[(2S,4S)-4-methylpyrrolidine-2-carbonyl]piperazin-1-yl]methanone; hydrochloride]",72
3,"COc1ccc(-c2cnc3c(Nc4ccc(C(=O)N5CCN(C(=O)[C@@H]6C[C@@H](CO)CN6)CC5)c(C)c4)nccn23)c(F)c1F [Example 284, [4-[[3-(2,3-difluoro-4-methoxyphenyl)imidazo[1,2-a]pyrazin-8-yl]amino]-2-methylphenyl]-[4-[(2S,4R)-4-(hydroxymethyl)pyrrolidine-2-carbonyl]piperazin-1-yl]methanone; hydrochloride]",49
